Experimental data: patent publication US5869494A, “Uses for barbituric acid analogs” (priority 1997, dated 1999)
Read-outs that look alike come from different tables or passages of the source.

What was measured:
Format in all cases: cell-based
[1] = system: DU-145 human prostate cancer cells; experiment: Cytotoxicity for prostate cancer cell line DU-145 (MTT assay); conditions: read-out: Percent cell kill; for cytotoxicity at 100 µg/mL: 100 μg/ml; for cytotoxicity at 150 µg/mL: 150 μg/ml; for cytotoxicity at 200 µg/mL: 200 μg/ml
Description: (§1) In the following examples, tumor cells were treated with varying concentrations of compounds C1, C2, C4 or C5 dissolved in absolute ethanol. To limit any non-specific toxicity, the final concentration of ethanol was not allowed to exceed 0.5%. Stock concentrations of 5 mg/ml or 20 mg/ml were used. Viability of cells was determined in some studies by the trypan blue dye exclusion method. In other studies, cell viability/proliferation activity was determined by MTT assay by using a kit obtained from Promega, (Promega Corp., Madison, Wis. 53711). For this assay, a 100 μl cell suspension containing 5-10^3 monolayer cells or 1×10^5 suspension cells was placed in the wells of a 96-well microtiter plate. After overnight incubation, cells were treated with different concentrations of the test compound. Control wells received vehicle only. After 24, 48, 72 or 96 h of incubation, 50 μl of MTT dye solution was added. After 4 h of incubation at 37° C., 100 μl of solubilization/stop solution was added. After another h of incubation, cells were mixed using a multi-channel pipet and the absorption of the dye color was recorded at 570 nm using a plate reading absorption spectrophotometer.
(§2) After the incubation period, viability of the cells was determined by MTT assay (Promega Corp., Madison, Wis. 53711).

[2] = system: L1210 mouse leukemia cells; experiment: Cytotoxicity for leukemia cells (L1210); conditions: for cytotoxicity at 100 µg/mL / cytotoxicity at 150 µg/mL / cytotoxicity at 200 µg/mL: Mus musculus; for cytotoxicity at 100 µg/mL: 100 μg/ml; for cytotoxicity at 150 µg/mL: 150 μg/ml
Description: as §1
The viability of the cells was […]

[3] = system: MCF-7 human breast cancer cells; experiment: Cytotoxicity for breast cancer cell line MCF-7 (MTT assay); conditions: read-out: Percent cell kill; for cytotoxicity at 100 µg/mL: 100 μg/ml; for cytotoxicity at 150 µg/mL: 150 μg/ml; for cytotoxicity at 200 µg/mL: 200 μg/ml
Description: as §1, §2

[4] = system: BT-20 human breast cancer cells; experiment: Cytotoxicity for breast cancer cell line BT-20 (MTT assay); conditions: read-out: Percent cell kill; for cytotoxicity at 100 µg/mL: 100 μg/ml; for cytotoxicity at 150 µg/mL: 150 μg/ml; for cytotoxicity at 200 µg/mL: 200 μg/ml
Description: as §1, §2

[5] = system: Daudi human lymphoma cells; experiment: Cytotoxicity for lymphoma cells (Daudi); conditions: Homo sapiens, Daudi; for cytotoxicity at 100 µg/mL: 100 μg/ml; for cytotoxicity at 150 µg/mL: 150 μg/ml, read-out: % Cytotoxicity; for cytotoxicity at 200 µg/mL: 200 μg/ml
Description: as §1
The viability of the cells was
Compounds C4 and C5 were also tested for toxicity against human lymphoma Daudi cells.

[6] = system: PC-3 human prostate cancer cells; experiment: Cytotoxicity for prostate cancer cell line PC-3 (MTT assay); conditions: read-out: Percent cell kill; for cytotoxicity at 100 µg/mL: 100 μg/ml; for cytotoxicity at 150 µg/mL: 150 μg/ml; for cytotoxicity at 200 µg/mL: 200 μg/ml
Description: as §1, §2

## CCCCN1C(=O)C(=O)C(=O)N(CCCC)C1=S [Compound C2, 4,5,6(1H)-pyrimidinetrione, 1,3-dibutyldihydro-2-thioxo]
[1]; DU-145, 24 h, 24 hr
  cytotoxicity at 100 µg/mL: 0%
  cytotoxicity at 150 µg/mL: 0%
  cytotoxicity at 200 µg/mL: 0%
[1]; DU-145, 48 h, 48 hr
  cytotoxicity at 100 µg/mL: 0%
  cytotoxicity at 150 µg/mL: 4.2 ± 3.9%
  cytotoxicity at 200 µg/mL: 20 ± 3%
[1]; DU-145, 72 h, 72 hr
  cytotoxicity at 100 µg/mL: 0%
  cytotoxicity at 150 µg/mL: 9.2 ± 5.3%
  cytotoxicity at 200 µg/mL: 36.7 ± 2.1%
[1]; DU-145, 96 h, 96 hr
  cytotoxicity at 100 µg/mL: 10 ± 6.1%
  cytotoxicity at 150 µg/mL: 25.2 ± 7.4%
  cytotoxicity at 200 µg/mL: 43.7 ± 4.3%
[2]; 200 μg/ml, 24 hr, 1440 min
  % Cytotoxicity: > 58%
[2]; L1210, 24 h, 24 hr
  cytotoxicity at 100 µg/mL: 33.2 ± 2%
  cytotoxicity at 150 µg/mL: 50 ± 4.1%
[2]; L1210, 24 h, 200 μg/ml, 24 hr
  cytotoxicity at 200 µg/mL: 58.7 ± 2.6%
[2]; L1210, 48 h, 48 hr
  cytotoxicity at 100 µg/mL: 29 ± 3.5%
  cytotoxicity at 150 µg/mL: 53.7 ± 2.5%
[2]; L1210, 48 h, 200 μg/ml, 48 hr
  cytotoxicity at 200 µg/mL: 72.5 ± 2.4%
[3]; MCF7, 24 h, 24 hr
  cytotoxicity at 100 µg/mL: 9 ± 7%
  cytotoxicity at 150 µg/mL: 26.3 ± 7.9%
  cytotoxicity at 200 µg/mL: 40 ± 10.6%
[3]; MCF7, 48 h, 48 hr
  cytotoxicity at 100 µg/mL: 16.3 ± 4.8%
  cytotoxicity at 150 µg/mL: 43.3 ± 7.3%
  cytotoxicity at 200 µg/mL: 70.3 ± 7.8%
[3]; MCF7, 72 h, 72 hr
  cytotoxicity at 100 µg/mL: 33.3 ± 5.4%
  cytotoxicity at 150 µg/mL: 61 ± 5.6%
  cytotoxicity at 200 µg/mL: 81.3 ± 3.2%
[3]; MCF7, 96 h, 96 hr
  cytotoxicity at 100 µg/mL: 87.7 ± 0.6%
  cytotoxicity at 150 µg/mL: 97 ± 0.8%
  cytotoxicity at 200 µg/mL: 94.3 ± 2.1%
[4]; BT-20, 24 h, 24 hr
  cytotoxicity at 100 µg/mL: 29.8 ± 6.8%
  cytotoxicity at 150 µg/mL: 30 ± 4.4%
  cytotoxicity at 200 µg/mL: 30.3 ± 2.9%
[4]; BT-20, 48 h, 48 hr
  cytotoxicity at 100 µg/mL: 51.8 ± 1.9%
  cytotoxicity at 150 µg/mL: 50 ± 1.7%
  cytotoxicity at 200 µg/mL: 55.5 ± 8.9%
[4]; BT-20, 72 h, 72 hr
  cytotoxicity at 100 µg/mL: 57.5 ± 2.6%
  cytotoxicity at 150 µg/mL: 60.8 ± 2.8%
  cytotoxicity at 200 µg/mL: 68.5 ± 3.4%
[4]; BT-20, 96 h, 96 hr
  cytotoxicity at 100 µg/mL: 99.9%
  cytotoxicity at 150 µg/mL: 99.9%
  cytotoxicity at 200 µg/mL: 99.9%
[5]; 24 h
  cytotoxicity at 100 µg/mL: 57.5 ± 3%
  cytotoxicity at 200 µg/mL: 93.2 ± 3.3%
[5]; 24 h, 24 hr
  cytotoxicity at 150 µg/mL: 81.3 ± 4%
[5]; 48 h
  cytotoxicity at 100 µg/mL: 41.5%
  cytotoxicity at 200 µg/mL: 88%
[5]; 48 h, 48 hr
  cytotoxicity at 150 µg/mL: 92%
[6]; 24 h, 24 hr
  cytotoxicity at 100 µg/mL: 32.7 ± 6.2%
  cytotoxicity at 150 µg/mL: 47 ± 6.7%
  cytotoxicity at 200 µg/mL: 57.5 ± 3.5%
[6]; 48 h, 48 hr
  cytotoxicity at 100 µg/mL: 46.2 ± 4.1%
  cytotoxicity at 150 µg/mL: 70.7 ± 6%
  cytotoxicity at 200 µg/mL: 81.5 ± 3.1%
[6]; 72 h, 72 hr
  cytotoxicity at 100 µg/mL: 51.5 ± 6.5%
  cytotoxicity at 150 µg/mL: 77.7 ± 4.6%
  cytotoxicity at 200 µg/mL: 88.5 ± 5.2%
[6]; 96 h, 96 hr
  cytotoxicity at 100 µg/mL: 75 ± 1%
  cytotoxicity at 150 µg/mL: 88.7 ± 3.2%
  cytotoxicity at 200 µg/mL: 95 ± 3.6%
